Measurements published in the supplement of paper PMC12463676, “Small-molecule dissolution of stress granules by redox modulation benefits ALS models” (Nature Chemical Biology, 2025).

Assays:
[1] = compound: O=[As]([O-])(O)O.[K+] [potassium arsenate]; experiment: thermal stability z-score vs DMSO; higher = more thermally stabilized by treatment; conditions: HeLa; arsenate concentration 1 mM
Protocol: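 Cellular thermal proteome profiling in HeLa cells treated with 1 mM arsenate for 1 h (DMSO pretreatment), heated to ten temperatures (37-66.3 °C). Soluble protein was quantified by TMT mass spectrometry relative to DMSO controls; the thermal stability score was transformed to a z-score; mean of n = 3 experiments.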

[2] = compound: NC(=O)CCCCC1CCSS1 [lipoamide]; experiment: as above; conditions: HeLa, lipoamide concentration 100 µM
Protocol: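 Cellular thermal proteome profiling in HeLa cells. Cells were treated with 100 µM lipoamide for 1 h, with or without 1 mM arsenate for a further 1 h, then heated to ten temperatures (37-66.3 °C), and soluble protein was quantified by TMT mass spectrometry relative to 0.1% DMSO controls. The thermal stability score (sum of log2 fold changes minus the abundance score) was transformed to a z-score; mean of n = 3 experiments.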

[3] = arsenate co-treatment: 1 mM arsenate 1 h
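Note: each temperature applied for 3 min, abundance score taken as mean log2 fold change at the two lowest temperatures, z-score obtained by mean subtraction and division by SD.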

Sequence of UniProt P49754 (P49754 whole entry): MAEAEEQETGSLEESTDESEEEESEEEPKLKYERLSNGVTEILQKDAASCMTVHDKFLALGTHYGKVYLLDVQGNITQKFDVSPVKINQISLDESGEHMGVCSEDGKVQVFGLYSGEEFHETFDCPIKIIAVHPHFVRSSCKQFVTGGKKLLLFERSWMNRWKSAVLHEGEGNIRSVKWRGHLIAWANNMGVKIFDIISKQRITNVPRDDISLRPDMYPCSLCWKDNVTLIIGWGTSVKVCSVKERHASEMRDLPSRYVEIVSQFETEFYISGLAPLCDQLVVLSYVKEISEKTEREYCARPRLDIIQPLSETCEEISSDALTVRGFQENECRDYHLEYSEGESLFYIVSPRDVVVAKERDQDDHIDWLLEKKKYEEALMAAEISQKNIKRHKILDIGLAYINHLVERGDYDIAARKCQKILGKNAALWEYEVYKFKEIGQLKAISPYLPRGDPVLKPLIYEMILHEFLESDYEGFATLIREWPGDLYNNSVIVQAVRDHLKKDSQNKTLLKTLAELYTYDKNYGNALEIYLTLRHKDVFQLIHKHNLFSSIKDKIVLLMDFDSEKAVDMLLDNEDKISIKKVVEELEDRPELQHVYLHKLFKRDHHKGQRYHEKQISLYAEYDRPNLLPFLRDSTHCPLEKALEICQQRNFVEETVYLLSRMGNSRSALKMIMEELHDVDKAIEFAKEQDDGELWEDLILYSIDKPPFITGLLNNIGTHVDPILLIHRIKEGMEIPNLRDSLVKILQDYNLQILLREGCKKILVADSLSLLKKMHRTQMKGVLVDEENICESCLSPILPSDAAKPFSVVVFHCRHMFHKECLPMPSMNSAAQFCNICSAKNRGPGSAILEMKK
Sequence of UniProt P57764 (P57764 whole entry): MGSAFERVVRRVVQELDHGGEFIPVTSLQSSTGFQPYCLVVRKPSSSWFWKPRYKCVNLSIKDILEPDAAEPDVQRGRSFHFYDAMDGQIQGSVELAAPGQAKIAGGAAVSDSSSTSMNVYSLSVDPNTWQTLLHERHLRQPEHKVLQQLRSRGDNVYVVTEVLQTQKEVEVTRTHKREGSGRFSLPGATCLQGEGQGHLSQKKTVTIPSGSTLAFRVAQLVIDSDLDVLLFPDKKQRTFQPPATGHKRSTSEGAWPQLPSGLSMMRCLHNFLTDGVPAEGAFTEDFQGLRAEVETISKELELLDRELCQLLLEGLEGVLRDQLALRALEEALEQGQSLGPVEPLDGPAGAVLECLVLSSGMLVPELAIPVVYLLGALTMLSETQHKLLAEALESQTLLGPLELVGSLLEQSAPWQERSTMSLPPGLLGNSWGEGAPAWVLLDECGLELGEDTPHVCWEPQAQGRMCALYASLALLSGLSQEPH
Sequence of UniProt O95758 (O95758 whole entry): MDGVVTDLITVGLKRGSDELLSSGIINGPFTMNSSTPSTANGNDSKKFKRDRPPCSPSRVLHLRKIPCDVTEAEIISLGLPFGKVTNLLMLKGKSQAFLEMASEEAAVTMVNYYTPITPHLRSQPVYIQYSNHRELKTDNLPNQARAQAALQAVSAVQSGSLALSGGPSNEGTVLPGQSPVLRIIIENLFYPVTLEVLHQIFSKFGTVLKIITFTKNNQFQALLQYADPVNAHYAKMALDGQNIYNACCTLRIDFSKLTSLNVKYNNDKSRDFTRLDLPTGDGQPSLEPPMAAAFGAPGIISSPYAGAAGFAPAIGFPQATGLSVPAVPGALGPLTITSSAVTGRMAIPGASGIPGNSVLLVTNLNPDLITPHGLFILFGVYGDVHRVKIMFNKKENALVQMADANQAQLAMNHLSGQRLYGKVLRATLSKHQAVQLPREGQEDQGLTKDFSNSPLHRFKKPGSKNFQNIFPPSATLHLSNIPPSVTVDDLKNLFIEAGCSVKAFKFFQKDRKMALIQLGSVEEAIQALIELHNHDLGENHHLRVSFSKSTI
Sequence of UniProt P08133 (P08133 whole entry): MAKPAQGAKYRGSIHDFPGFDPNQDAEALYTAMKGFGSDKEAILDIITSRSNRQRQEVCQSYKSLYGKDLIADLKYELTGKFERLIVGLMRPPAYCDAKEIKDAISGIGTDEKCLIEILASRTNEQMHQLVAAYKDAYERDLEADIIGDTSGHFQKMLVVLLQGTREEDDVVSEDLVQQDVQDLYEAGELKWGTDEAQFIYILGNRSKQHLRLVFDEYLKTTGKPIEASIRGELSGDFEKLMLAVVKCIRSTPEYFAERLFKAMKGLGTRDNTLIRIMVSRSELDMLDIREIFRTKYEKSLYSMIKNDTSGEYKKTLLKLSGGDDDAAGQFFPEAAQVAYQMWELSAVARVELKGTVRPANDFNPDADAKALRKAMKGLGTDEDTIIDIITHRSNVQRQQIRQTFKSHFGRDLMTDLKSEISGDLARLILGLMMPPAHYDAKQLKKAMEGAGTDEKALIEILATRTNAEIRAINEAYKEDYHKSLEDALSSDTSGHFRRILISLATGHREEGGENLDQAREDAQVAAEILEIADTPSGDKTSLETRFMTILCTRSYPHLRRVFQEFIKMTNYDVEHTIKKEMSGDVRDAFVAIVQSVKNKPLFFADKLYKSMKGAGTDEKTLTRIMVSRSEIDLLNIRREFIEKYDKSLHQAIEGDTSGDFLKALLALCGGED
Sequence of UniProt Q9BT22 (Q9BT22 whole entry): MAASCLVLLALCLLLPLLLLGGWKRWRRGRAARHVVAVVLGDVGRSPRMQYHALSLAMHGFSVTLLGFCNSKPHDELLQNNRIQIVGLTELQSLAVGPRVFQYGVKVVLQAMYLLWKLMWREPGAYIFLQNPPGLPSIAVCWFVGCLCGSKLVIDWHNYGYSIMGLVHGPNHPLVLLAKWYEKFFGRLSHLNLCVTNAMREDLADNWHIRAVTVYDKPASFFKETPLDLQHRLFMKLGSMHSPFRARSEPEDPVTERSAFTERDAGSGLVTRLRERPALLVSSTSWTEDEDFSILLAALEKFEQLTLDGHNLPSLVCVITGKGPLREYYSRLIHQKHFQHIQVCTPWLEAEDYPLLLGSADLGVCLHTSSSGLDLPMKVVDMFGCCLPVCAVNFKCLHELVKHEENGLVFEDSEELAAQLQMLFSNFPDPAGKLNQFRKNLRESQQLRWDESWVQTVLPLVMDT
Sequence of UniProt Q8NCU4 (Q8NCU4 whole entry): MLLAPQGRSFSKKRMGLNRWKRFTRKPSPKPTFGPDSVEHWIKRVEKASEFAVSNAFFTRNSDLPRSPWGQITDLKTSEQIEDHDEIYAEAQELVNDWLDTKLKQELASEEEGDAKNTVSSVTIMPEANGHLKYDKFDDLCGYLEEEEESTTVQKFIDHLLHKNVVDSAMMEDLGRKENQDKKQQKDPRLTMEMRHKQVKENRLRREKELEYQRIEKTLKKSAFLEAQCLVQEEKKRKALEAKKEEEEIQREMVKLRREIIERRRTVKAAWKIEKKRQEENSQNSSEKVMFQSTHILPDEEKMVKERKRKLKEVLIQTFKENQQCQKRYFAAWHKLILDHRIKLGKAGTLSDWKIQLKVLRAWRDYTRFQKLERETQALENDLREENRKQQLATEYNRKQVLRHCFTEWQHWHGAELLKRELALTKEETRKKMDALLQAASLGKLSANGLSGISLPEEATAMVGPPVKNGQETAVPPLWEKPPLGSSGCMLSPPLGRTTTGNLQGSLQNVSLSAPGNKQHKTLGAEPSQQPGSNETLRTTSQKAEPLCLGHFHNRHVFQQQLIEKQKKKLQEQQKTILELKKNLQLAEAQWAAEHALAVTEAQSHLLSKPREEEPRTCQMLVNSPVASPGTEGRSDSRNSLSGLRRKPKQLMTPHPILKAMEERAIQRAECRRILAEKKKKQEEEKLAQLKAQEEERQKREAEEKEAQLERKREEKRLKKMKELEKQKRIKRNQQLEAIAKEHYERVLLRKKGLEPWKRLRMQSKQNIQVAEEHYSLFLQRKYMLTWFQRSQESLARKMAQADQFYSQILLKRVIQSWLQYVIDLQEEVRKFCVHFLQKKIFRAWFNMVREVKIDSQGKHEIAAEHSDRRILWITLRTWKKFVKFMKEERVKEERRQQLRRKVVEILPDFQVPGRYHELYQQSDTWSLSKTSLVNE
Sequence of UniProt Q9NZJ0 (Q9NZJ0 whole entry): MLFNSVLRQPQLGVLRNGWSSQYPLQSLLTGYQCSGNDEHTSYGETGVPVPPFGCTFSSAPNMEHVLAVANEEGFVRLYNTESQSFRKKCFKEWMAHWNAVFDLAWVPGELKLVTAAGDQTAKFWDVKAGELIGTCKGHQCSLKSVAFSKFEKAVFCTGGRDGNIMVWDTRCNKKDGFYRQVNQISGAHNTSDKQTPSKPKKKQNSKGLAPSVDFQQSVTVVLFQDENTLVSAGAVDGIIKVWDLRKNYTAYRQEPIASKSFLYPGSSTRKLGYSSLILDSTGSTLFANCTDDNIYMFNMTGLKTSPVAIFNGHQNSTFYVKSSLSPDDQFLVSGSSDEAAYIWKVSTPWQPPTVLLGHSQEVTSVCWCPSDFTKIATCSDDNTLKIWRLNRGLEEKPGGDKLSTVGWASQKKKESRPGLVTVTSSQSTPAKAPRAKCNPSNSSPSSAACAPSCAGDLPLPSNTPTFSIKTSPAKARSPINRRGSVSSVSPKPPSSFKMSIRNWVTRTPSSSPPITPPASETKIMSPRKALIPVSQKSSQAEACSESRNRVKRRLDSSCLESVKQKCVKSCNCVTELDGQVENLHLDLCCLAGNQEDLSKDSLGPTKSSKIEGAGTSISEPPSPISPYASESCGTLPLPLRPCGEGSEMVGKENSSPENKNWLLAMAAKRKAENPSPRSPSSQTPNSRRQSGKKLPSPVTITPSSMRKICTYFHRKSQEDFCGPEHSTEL
Sequence of UniProt P24666 (P24666 whole entry): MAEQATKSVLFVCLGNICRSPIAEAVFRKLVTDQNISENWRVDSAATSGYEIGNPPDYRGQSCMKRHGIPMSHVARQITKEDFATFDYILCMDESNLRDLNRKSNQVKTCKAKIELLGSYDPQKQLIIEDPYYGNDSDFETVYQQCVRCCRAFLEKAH
Sequence of UniProt P24311 (P24311 whole entry): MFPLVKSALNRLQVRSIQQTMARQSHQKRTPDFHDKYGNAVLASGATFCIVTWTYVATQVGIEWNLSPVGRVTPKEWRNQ

| Target | thermal stability z-score [1] | thermal stability z-score [2, 3] | thermal stability z-score ([2]; arsenate co-treatment: none) |
| --- | --- | --- | --- |
| DTL (UniProt Q9NZJ0) | -0.408 | -0.0028 | -0.0193 |
| VAV2 (UniProt P52735) | 0.835 | 0.0635 | 0.172 |
| JUP (UniProt P14923) | 1.07 | 2.23 | 2.78 |
| ACSF3 (UniProt Q4G176) | 0.298 | -0.68 | 0.39 |
| SURF2 (UniProt Q15527) | -0.529 | -0.0697 | 0.247 |
| RHOB (UniProt P62745) | -0.245 | 0.0865 | 0.065 |
| ELMSAN1 (UniProt Q6PJG2) | -0.16 | 0.273 | 0.0593 |
| CNPY4 (UniProt Q8N129) | 0.532 | -1.84 | -1.57 |
| CD70 (UniProt P32970) | -0.313 | 1.03 | 0.355 |
| GSDMD (UniProt P57764) | -0.198 | 0.143 | 0.362 |
| CDC42SE1 (UniProt Q9NRR8) | -0.154 | -0.0857 | 0.383 |
| KIAA0391 (UniProt O15091) | -0.0848 | -0.0274 | 0.14 |
| CSRP1 (UniProt P21291) | 0.517 | 0.858 | 0.655 |
| PNN (UniProt Q9H307) | -0.467 | 1.03 | 0.507 |
| RAB5B (UniProt P61020) | -0.758 | 0.278 | -0.614 |
| ABL2 (UniProt P42684) | -0.0185 | -0.0711 | -0.109 |
| NFYC (UniProt Q13952) | -0.0961 | 0.024 | 0.385 |
| CC2D1B (UniProt Q5T0F9) | -0.125 | -0.661 | -0.8 |
| RNF216 (UniProt Q9NWF9) | 0.679 | -0.0849 | 0.015 |
| STRN3 (UniProt Q13033) | 0.326 | 0.231 | 0.318 |
| FHOD1 (UniProt Q9Y613) | 0.2 | -0.261 | -0.0798 |
| CINP (UniProt Q9BW66) | 0.256 | -0.0967 | -0.169 |
| RIN1 (UniProt Q13671) | 0.0874 | -0.105 | -0.041 |
| EFTUD2 (UniProt Q15029) | -0.28 | 0.0587 | -0.0524 |

| Target | thermal stability z-score [1] | thermal stability z-score [2, 3] | thermal stability z-score ([2]; arsenate co-treatment: none) |
| --- | --- | --- | --- |
| CCDC191 (UniProt Q8NCU4) | -0.189 | 0.286 | -0.0683 |
| GRPEL1 (UniProt Q9HAV7) | -0.236 | -0.953 | 0.246 |
| DOCK9 (UniProt Q9BZ29) | -0.457 | -0.191 | -0.0295 |
| EPHA5 (UniProt P54756) | 0.746 | 0.8 | 0.338 |
| COX7B (UniProt P24311) | -0.0702 | -0.0929 | -0.0319 |
| SBF2 (UniProt Q86WG5) | -0.179 | -0.149 | -0.0174 |
| LPCAT1 (UniProt Q8NF37) | 0.149 | -0.369 | -0.129 |
| FTSJ1 (UniProt Q9UET6) | -0.793 | -0.787 | -0.171 |
| RPL9 (UniProt P32969) | -0.232 | 0.762 | 0.659 |
| RASA2 (UniProt Q15283) | -0.334 | -0.0591 | -0.273 |
| WBSCR22 (UniProt O43709) | -0.902 | -0.223 | -0.46 |
| SPECC1 (UniProt Q5M775) | 1.48 | 0.0376 | 0.504 |
| TNRC6A (UniProt Q8NDV7) | -0.416 | -0.105 | -0.121 |
| HSP90AA4P (UniProt Q58FG1) | -2.39 | -1.84 | -1.53 |
| FAT1 (UniProt Q14517) | 0.0899 | -1.6 | -1.48 |
| UBE2E1 (UniProt P51965) | 11.8 | 0.456 | 0.441 |
| VPS13B (UniProt Q7Z7G8) | -0.168 | 0.291 | 0.491 |
| STAM2 (UniProt O75886) | 0.249 | 0.291 | -0.113 |
| PMVK (UniProt Q15126) | 0.0469 | -0.641 | 0.0911 |
| ACP1 (UniProt P24666) | -1.2 | -0.147 | -0.0266 |
| STX2 (UniProt P32856) | -0.135 | 0.221 | -0.18 |
| PKN3 (UniProt Q6P5Z2) | 0.231 | -0.237 | 0.334 |
| MRPL57 (UniProt Q9BQC6) | 0.671 | 0.281 | 0.104 |
| NUP50 (UniProt Q9UKX7) | 0.502 | 1.4 | 1.06 |

| Target | thermal stability z-score [1] | thermal stability z-score [2, 3] | thermal stability z-score ([2]; arsenate co-treatment: none) |
| --- | --- | --- | --- |
| RAD23B (UniProt P54727) | 0.357 | 1.08 | 1.05 |
| RPAP2 (UniProt Q8IXW5) | -0.0605 | -0.0831 | -0.0884 |
| SNAP25 (UniProt P60880) | -0.723 | 0.86 | 0.512 |
| PRMT1 (UniProt Q99873) | -0.12 | 0.147 | 0.262 |
| MIOS (UniProt Q9NXC5) | -0.469 | 0.0112 | 0.085 |
| DLGAP4 (UniProt Q9Y2H0) | -2.62 | -0.0201 | -0.367 |
| PTBP3 (UniProt O95758) | -0.772 | -0.713 | 0.0298 |
| GLTSCR2 (UniProt Q9NZM5) | -2.53 | 0.409 | -0.522 |
| PLS1 (UniProt Q14651) | -0.0678 | 0.258 | 0.506 |
| ALG1 (UniProt Q9BT22) | 0.115 | -0.337 | 0.0286 |
| TMPO | 2.87 | 0.194 | 0.0563 |
| TRABD (UniProt Q9H4I3) | -0.0912 | 0.366 | 0.172 |
| GPALPP1 (UniProt Q8IXQ4) | -0.865 | -0.0123 | 0.162 |
| USP34 (UniProt Q70CQ2) | -0.384 | 0.544 | 0.668 |
| ANXA6 (UniProt P08133) | 2.15 | 3.2 | 3.6 |
| UniProt E7ENQ6 | 0.151 | -0.462 | -0.272 |
| ARNT (UniProt P27540) | 0.561 | 0.605 | 0.794 |
| MRPS31 (UniProt Q92665) | -0.0848 | -0.961 | 0.411 |
| TRAM1 (UniProt Q15629) | 0.968 | -0.499 | -1.11 |
| PI4K2A (UniProt Q9BTU6) | -0.0745 | 0.0172 | -0.189 |
| VPS41 (UniProt P49754) | -0.161 | -0.0442 | -0.511 |
| KIAA0907 (UniProt Q7Z7F0) | -0.94 | -0.462 | -1.09 |
| PMF1 (UniProt Q6P1K2) | 0.367 | 0.0314 | -0.0395 |
| MIPEP (UniProt Q99797) | -0.271 | -0.162 | 0.0258 |
